Experiments:
S. aureus [1] = assay: Antibiotic sensitivity of S. aureus (OD600 / plating, FIGS. 9A-9C, 10); type: cell-based; conditions: log phase culture, OD600 over time, control kanamycin, 9B
Method: To determine the antibiotic sensitivity of S. aureus, cultures were grown overnight in tryptic soy broth (Cellgro). The resulting cultures were used to inoculate new cultures to ensure log phase growth prior to the start of the experiment. Once the bacteria had reached log phase the bacteria was diluted to the appropriate OD600˜0.05 and transferred to a 24-well plate. Compounds of interest were added and plates were incubated in a shaking incubator at 37° C. Aliquots were removed at various time points and their respective OD600 was measured using a BioTek Synergy2 microplate reader (BioTek, Winooski, Vt.). For wells whose turbidity was affected by the addition of the compounds of interest, aliquots were removed and plated on tryptic soy agar (Cellgro) and incubated overnight in a 37° C. incubated and counted the following day. Thus, it should be appreciated that the calcium flux agonists are effective in antimicrobial treatments via an indirect effect, most likely due to the enhanced production of IL-8 and increased NF-κB-driven transcription.

[2] = test system: TLR (TLR2, TLR4, TLR5, TLR9) and NOD (NOD1, NOD2) family members; assay: IL-8 production with TLR and NOD ligands plus suboptimal calcium flux agonist (FIGS. 3A-3E); type: cell-based, human; conditions: suboptimal doses: 20 nM thapsigargin, 316 nM A23187, 1 μM ionomycin, 10 μM cyclopiazonic acid, 31.6 μM DBHQ
Method: To investigate if that observation was also true for other pattern recognition receptors, and especially for TLR and NOD receptors and other ligands, the inventors tested numerous TLR and NOD receptors and various ligands.
The doses used in this experiment were 20 nM for thapsigargin, 316 nM for A23187, 1 μM for ionomycin, 10 μM for cyclopiazonic acid, and 31.6 μM for DBHQ.
Thus, a clear pattern of adjuvant activity of calcium flux agonists on the immune response, and especially on IL-8 production and NF-κB signaling is evident where the immune response is associated with a TLR- or NOD-mediated event.

THP-1 cells = assay: Human IL-8 activity, dose response of calcium flux agonists without added TLR or NOD ligand; type: cell-based; conditions: 24 hours, increasing concentrations, no added TLR or NOD ligand, FIGS. 1A-1C
Text: (§1) The inventors performed several studies to identify the effect of calcium flux agonists on various components of an immune response, and particularly on the effect of calcium flux agonists on IL-8 production and activation of NF-κB signaling. […] The dose response is observed over relatively large windows for ionophores (e.g., A23187 and ionomycin) and over at least two orders of magnitude for SERCA inhibitors (e.g., thapsigargin).
(§2) More specifically, the dose response of ionophores on NF-κB and IL-8 is shown in FIGS. 1A-1B using a monocyte-derived cell line to treatment and A23187 and ionomycin in the absence of externally added TLR or NOD ligands. […] FIG. 1C depicts the dose response to thapsigargin on NF-κB and IL-8.
Human IL-8 activity: A titration of thapsigargin (A.G. Scientific, San Diego Calif.), ionomycin (Sigma-Aldrich, St. Louis Mo.), and the calcium ionophore A23187 (Sigma-Aldrich) was added to a 96-well plate (Thermo Matrix, Waltham Mass.) seeded with 150,000 THP-1 cells (ATCC TIB-202) grown in RPMI 1640 (Cellgro, Herndon VA) supplemented with 10% FBS (Thermo HyClone, Waltham Mass.) and 1% penicillin-streptomycin-fungizone (Thermo HyClone). 24 hours after addition, 25 uL of supernatant was removed and assayed for human IL-8 using the Meso Scale Discovery Human IL-8 Tissue Culture Kit (MSD, Rockville, Md.) per manufacturer's protocol. The results were analyzed using the Meso Scale Discovery SECTOR Imager 2400 and normalized to a titration of human IL-8 supplied by the MSD Kit.

[3] = test system: κB-LUC THP-1 (NF-κB Luciferase Reporter); assay: NF-κB activation, luciferase reporter, dose response without added ligand; type: cell-based, human; conditions: κB-LUC THP-1, 24 hours, increasing concentrations, no added ligand; FIGS. 1A-1C
Text: as §1, §2
NF-κB activation: A titration of thapsigargin (A.G. Scientific), ionomycin, and the calcium ionophore A23187 was added to a 96-well plate (Thermo Matrix) seeded with 150,000 THP-1 κB-LUC THP-1's (THP-1 cells containing the stable integration of a NF-κB Luciferase Reporter) grown in RPMI 1640 (Cellgro, Herndon VA) supplemented with 10% FBS (Thermo HyClone) and 1% penicillin-streptomycin-fungizone (Thermo HyClone). 24 hours after addition, 25 uL of Bright-Glo Luciferase Assay System (Promega, Madison Wis.) was added to each well and analyzed for luciferase activity using Perkin Elmer TopCount NXT (Perkin Elmer, Waltham Mass.).

S. aureus [4] = assay: Mouse model of S. aureus skin wound infection, pre-infection topical treatment; type: in vivo, C57BL/6 mice; conditions: topical 2 mM formulation one day before infection; for bacterial burden at the infection site: day 7, vs vehicle controls; for wound size: days 3, 5 and 7 of infection, vs control treated animals, p<0.01
Method: To determine if calcium flux agonists such as the ionophores A23187 and ionomycin or the SERCA pump inhibitor thapsigargin can be used as a pre-treatment of bacterial infection, the inventors treated the shaved dorsal skin of 6-8 week old male C57B1/6 mice with vehicle alone, or formulations containing 2 mM A23187, ionomycin, or thapsigargin. One day later, the inventors superficially infected the dorsal skin of groups of 5 mice with 2×10^6 CFU of S. aureus and evaluated bacterial burden and wound size over the next week.
Topical delivery: A23187 and ionomycin and thapsigargin were reconstituted in dehydrated ethanol (Spectrum Chemicals, Gardena Calif.) to appropriate concentrations for subsequent formulations. In the pre-infection in vivo study, topical formulations consisted of 75% dehydrated ethanol (Spectrum Chemicals), 22% cyclohexane (Sigma-Aldrich), and 3% dimethyl sulfoxide (Sigma-Aldrich). Each topical formulation was delivered by submersing a circular piece of Whatman paper (Whatman, a division of GE Healthcare) with a 1.0 centimeter diameter and applying said circle to the skin of each recipient for 5 minutes.
Preparation of S. aureus for skin inoculation: Briefly, mid-logarithmic phase S. aureus bacteria was washed twice and resuspended in sterile saline (0.9%) at the noted concentrations. Mice: Male mice, 6-8 weeks old, on a C57BL/6 genetic background were used in all experiments (Jackson Laboratories, Bar Harbor, Me.).
Mouse model of S. aureus skin wound infection: To prepare animals for wound infection, the skin of the posterior upper back and neck of mice was shaved using #40 clippers. Next, three parallel 8 mm long full-thickness scalpel cuts (no. 11 blade) were made into the dermis. Resulting wounds were inoculated with 10 μl of S. aureus (2×10^8 CFUs per mL) with a micropipettor. Total lesion size (cm2) measurements were quantified by determining total pixel count from photographed animals using a millimeter ruler as a reference.
Quantification of in vivo S. aureus bacterial burden: To determine in vivo bacterial burden, infected mice were sacrificed on day 7 following infection and lesions were harvested surgically. Harvested tissues were homogenized and bacterial count was determined following plating on appropriate solid growth media.

## CNc1ccc2oc(C[C@H]3O[C@@]4(CC[C@H]3C)O[C@H]([C@H](C)C(=O)c3ccc[nH]3)[C@H](C)C[C@H]4C)nc2c1C(=O)O [A23187, calcimycin]
S. aureus [1]
  direct antibiotic effect against S. aureus: some direct antibiotic effect
[2]
  effect on IL-8 production with TLR and NOD ligands: synergistic effect
THP-1 cells
  IL-8 production: significant increases
[3]
  activation of NF-κB signaling: significant increases
S. aureus [4]
  bacterial burden at the infection site: significantly fewer bacteria
  wound size: significantly smaller wound sizes

## C[C@H](CCC(=O)O)C[C@H](C)C[C@H](C)C(=O)/C=C(\O)[C@H](C)C[C@H](C)C/C=C/[C@@H](C)[C@@H](O)[C@@H](C)[C@@H](O)C[C@@H]1CC[C@@](C)([C@H]2CC[C@@](C)([C@@H](C)O)O2)O1 [ionomycin]
S. aureus [1]
  direct antibiotic effect against S. aureus: some direct antibiotic effect
[2]
  effect on IL-8 production with TLR and NOD ligands: synergistic effect
THP-1 cells
  IL-8 production: significant increases
[3]
  activation of NF-κB signaling: significant increases
S. aureus [4]
  bacterial burden at the infection site: significantly fewer bacteria
  wound size: significantly smaller wound sizes

## C/C=C(/C)C(=O)O[C@H]1C(C)=C2[C@H]([C@@H]1OC(=O)CCCCCCC)[C@@](C)(OC(C)=O)C[C@H](OC(=O)CCC)[C@@]1(O)[C@H]2OC(=O)[C@@]1(C)O [thapsigargin]
S. aureus [1]
  direct antibiotic effect against S. aureus: lack of direct antibiotic effect
[2]
  effect on IL-8 production with TLR and NOD ligands: synergistic effect
THP-1 cells
  IL-8 production: significant increases
[3]
  activation of NF-κB signaling: significant increases
S. aureus [4]
  bacterial burden at the infection site: significantly fewer bacteria
  wound size: significantly smaller wound sizes
